Results on 2 compounds are retold here after US20170281566A1, “COMBINATIONS OF LSD1 INHIBITORS FOR THE TREATMENT OF HEMATOLOGICAL MALIGNANCIES” (HOFFMANN-LA ROCHE INC., priority 2016, published 2017).

Assay type in all cases: cell-based
The subject of one experiment is HL-60 cells. Description: Viability assay (96 hours), Alamar Blue, single agent. On the procedure:
(§1) AML cell lines were maintained in RPMI 10% FBS medium at 37° C. in a humidified incubator with controlled 5% CO2 atmosphere. Cell freezing and thawing was performed following recommendation from ATCC. Genetic profiling of the cell lines used is available in table 2. […] Three wells were reserved for each experimental condition; medium-only and vehicle-treated controls were also added for background correction and normalization respectively. […] Alamar Blue® is a cell viability indicator that uses the natural reducing power of living cells to convert resazurin to the fluorescent molecule, resorufin^43.

The subject of the next experiment is KASUMI-1 cells. The description is as above. On the procedure: as §1
The next experiment relates to MOLM-13 cells. Described as above. On the procedure:
as §1

The subject of the next experiment is MV(4;11) cells. The description is as above. How it is done:
as §1

Another experiment has as its system OCI-AML3 cells. The experiment is described as above. On the procedure: as §1
The next experiment relates to THP-1 cells. Described as above. How it is done:
as §1

The test system of a further experiment is MOLT4 cells. Description: Viability assay (10 days), Alamar Blue, single agent. On the procedure: MOLT4 cells were maintained in RPMI 10% FBS medium at 37° C. in a humidified incubator with controlled 5% CO2 atmosphere. Cell freezing and thawing was performed following recommendation from ATCC. Genetic profiling of the cell lines used is available in table 4.
2.1.2 Viability Assays (10 Days)
Three wells were reserved for each experimental condition; medium-only and vehicle-treated controls were also added for background correction and normalization respectively. After seeding, 50 μL of medium containing 8 1:3 serial dilution of ORY-1001 were added to the cells (range 0.015-100 nM). Cells were then incubated for 6 days at 37° C. in a controlled 5% CO2 atmosphere. On the sixth day, 1004, of medium with serial dilutions of ORY-1001 (as described previously) or vehicle were added to the cells. Medium without compound (100μ) was added to background control.
After 4 additional days of incubation, cell viability was evaluated using the Alamar Blue® staining as detailed in the section 1.1.2.
A general note: Alamar Blue is a resazurin reagent that responds to reducing activity.

The next experiment concerns OCI-AML2 cells. The experiment in a line: Viability assay (96 hours), Alamar Blue, single agent. The settings on record: Homo sapiens, OCI-AML2, 96 h, read-out: EC50 (viability). How it is done:
as §1

As a reminder, the EC50 is the concentration at which the effect is half-maximal.

On to `N[C@H]1CC[C@H](N[C@@H]2C[C@H]2c2ccccc2)CC1` [ORY-1001, (trans)-N1-((1R,2S)-2-phenylcyclopropyl)cyclohexane-1,4-diamine], for which the “EC50 (viability)” value is recorded as “sub-nanomolar” in the experiment on HL-60 cells (HL-60, 96 hours, single agent); “sub-nanomolar” in the experiment with KASUMI-1 cells (KASUMI-1, 96 hours, single agent); “sub-nanomolar” in the experiment with MOLM-13 cells (MOLM-13, 96 hours, single agent); “sub-nanomolar” with MV(4;11) cells (MV(4;11), 96 hours, single agent); “sub-nanomolar” in the experiment with OCI-AML3 cells (OCI-AML3, 96 hours, single agent); “sub-nanomolar” in the experiment on THP-1 cells (THP-1, 96 hours, single agent). Besides, the “EC50 (viability)” value with MOLT4 cells (MOLT4, 10 days of treatment, single agent) is on record as “sub-nanomolar”. Also, in the experiment on MOLT4 cells (shorter treatment (96 hours), data not shown), the “Effect on viability of MOLT-4 cells” value was “not affecting the viability”.
Regarding `O=C(CCCCCCNC(=O)c1cnc(N(c2ccccc2)c2ccccc2)nc1)NO` [Rocilinostat, Ricolinostat, reference compound], the half-maximal effective concentration (EC50) in the experiment with HL-60 cells (Homo sapiens, HL-60, 96 h, read-out: EC50 (viability)) lay in the range of 0.5 to 3 µM; with KASUMI-1 cells (Homo sapiens, Kasumi 1, 96 h, read-out: EC50 (viability)) it was 0.5 to 3 µM; with MOLM-13 cells (Homo sapiens, MOLM-13, 96 h, read-out: EC50 (viability)) it was 0.5 to 3 µM; in the experiment on MV(4;11) cells (Homo sapiens, MV4-11, 96 h, read-out: EC50 (viability)), 0.5 to 3 µM; in the experiment on OCI-AML2 cells it was 0.5 to 3 µM; in the experiment with OCI-AML3 cells (Homo sapiens, OCI-AML-3, 96 h, read-out: EC50 (viability)), 0.5 to 3 µM. In the experiment on THP-1 cells (Homo sapiens, THP-1, 96 h, read-out: EC50 (viability)), the EC50 was 0.5 to 3 µM.
